Measured values published in patent US12612371B2, “Sigma-1 receptor ligands and therapeutic uses thereof” (UNIVERSITE DE STRASBOURG, priority 2019, dated 2026).

Biological target: T1, sigma 1 (h) (Homo sapiens, UniProt Q99720)
T1 construct: incubating Jurkat cell membranes (10-20 mg protein per tube) with [^3H](+) pentazocine; endogenous in cells; host or cells: Jurkat cell membranes
Experiment: σ1 binding assay ([3H](+)pentazocine displacement, Jurkat cell membranes)
Settings: compound at 10 nM, [3H](+)pentazocine 15 nM, 37° C., 2 hours, read-out: Sigma-1 receptor % inhibition 10 nM
Procedure: The σ1 binding assays were performed according to Ganapathy et al (Ganapathy, M. E. et al. (1999), J. Pharmacol. Exp. Ther., 28:251-260). The σ1 binding assay was carried out by incubating Jurkat cell membranes (10-20 mg protein per tube) with [^3H](+) pentazocine a selective S1R ligand (15 nM) and a range of concentration of tested compounds, at 37° C. for 2 hours in 5 mM tris/HCl buffer (pH=7.4). The inhibition of [3H]-(+)-pentazocine binding assay is mainly used to determine the inhibition constant (Ki) of potential SIR ligands. These assays are performed with a single concentration of [^3H]-(+)-pentazocine at a concentration near its KD and increasing concentrations of non-radioactive ligands.

T1 sequence (Q99720 whole entry): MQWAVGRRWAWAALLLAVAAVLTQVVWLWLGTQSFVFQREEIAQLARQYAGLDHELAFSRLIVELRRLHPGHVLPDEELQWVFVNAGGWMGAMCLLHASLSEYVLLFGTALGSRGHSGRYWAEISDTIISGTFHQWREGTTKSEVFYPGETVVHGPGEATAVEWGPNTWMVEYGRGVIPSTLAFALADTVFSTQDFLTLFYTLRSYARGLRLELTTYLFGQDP

O=c1c(-c2ccccc2)ccnn1CCCCN1C2CCC1CC(O)C2 (stereo not shown) [compound 16, 2-(4-(3-hydroxy-8-azabicyclo[3.2.1]octan-8-yl)butyl)-4-phenylpyridazin-3(2H)-one]
inhibition at 0.01 µM: 4.8%
